According to patent publication US20220193120A1, “MOLECULAR HYDROGEN-CONTAINING COMPOSITION FOR MAINTAINING LUNG FUNCTION IN HUMAN LUNG CANCER AND/OR IMPROVING REDUCTION IN LUNG FUNCTION ATTRIBUTED TO HUMAN LUNG CANCER” (MiZ Company Limited, priority 2020, published 2022):
Like-named read-outs stand apart in the source and are kept apart here.

How the values were obtained:
[1] = tested on: lung function of subject having lung cancer
Method: On Oct. 21, 2020, inhalation of the hydrogen gas was started using a hydrogen gas generator (Jobs-α, hydrogen concentration: about 4% to 5%, the amount of 100% hydrogen to be generated: 200 ml/min) manufactured by MiZ Company Limited (Ofuna, Kamakura). […]

[2] = tested on: lung function of subject having lung cancer; conditions: one month from start of inhalation, hydrogen about 1% to 2%, 3 to 6 hours per day
Method: A person had surgery of colorectal cancer in 2018. Thereafter, the person was periodically examined for follow-up. […] From the day of examination, the person was treated with hydrogen gas inhalation for 3 to 6 hours per day using a hydrogen gas generator (Jobs-mini, hydrogen concentration: about 1% to 2%, the amount of 100% hydrogen to be generated: 30 ml/min).

Lewis Lung Carcinoma = conditions: inhalation of low concentration (3.5%) hydrogen; Japanese Patent No. 6781485, Example 1; cited from earlier work
[3] = room temperature, normal pressure; also printed as 1.6 mg/L; cited from earlier work
[4] = Week 2, hydrogen about 4% to 5%, at least 3 hours per day
[5] = Week 3, hydrogen about 4% to 5%, at least 3 hours per day

For `[HH]` [hydrogen gas, molecular hydrogen], the “tolerability of hydrogen gas inhalation” value ([1]; Week 1, inhalation 5 hours per day, hydrogen concentration about 4% to 5%, person stage IV lung cancer) was “inhaled comfortably with no discomfort”, the “amount of oxygen needed for oxygen inhalation” value [1, 4] was “reduced” and the breathing [1, 4] was “became easier”. The “lung X-ray image change” value [1, 4] was “any significant change was not observed”, the state of breathing [1, 4] was “became better” and the “amount of oxygen needed for oxygen inhalation” value [1, 5] was “reduced compared to that in the previous week”. For the same compound, the “complicating inflammation reaction such as colitis” value [1, 5] was “improved”, the “lung ventilatory function (doctors' determination from CT image and oxygen needed)” value [1, 5] was “improved compared to that one month ago” and the “shadows derived from pneumonia in chest CT image” value [1, 5] was “completely disappeared”. The breathing function [2] was “normal values again”, the lung capacity [2] was “normal values again” and the tumor markers [2] was “normal numeric values again”. The “lung cancer at pre-surgery examination” value ([2]; person) was “disappeared”, the metastasis (Lewis Lung Carcinoma) was “suppressed” and the “concentration of hydrogen dissolved in water” value [3] was “approximately 1.6 ppm”.
